Source: article PMC4409069 (PLoS ONE, 2015)
Like-named read-outs stand apart in the source and are kept apart here. Ends that are not written are not given here.

Columns and labels:
[1] = system: A/California/04/09/H1N1 pandemic strain (Cal09); format: cell-based, influenza A virus
[2] = system: neuraminidase (NA) activity of Phil82; format: biochemical, influenza A virus
[3] = system: Mex 1:7 (HA gene of A/Mexico/4108/09/H1N1 with the other 7 genes of NY01); format: cell-based, influenza A virus
[4] = system: A/New York/312/01/H1N1 (NY01) seasonal strain; format: cell-based, influenza A virus
[5] = system: Mex 2:6 (HA and NA of A/Mexico/09/H1N1, other genes of NY01); format: cell-based, influenza A virus
[6] = system: A/California/04/09/H1N1 pandemic strain (Cal09); format: cell-based, influenza A virus; remark: listed apart in the source
[7] = system: hemagglutination activity of Phil82 IAV; assay: Hemagglutination (HA) inhibition assay; format: biochemical, influenza A virus; settings: concentrations up to 12μM, three experiments, human type O red cells
Method: HA inhibition was measured by serially diluting LL-37 peptides in round bottom 96 well plates (Serocluster U-Vinyl plates; Costar, Cambridge, MA) using PBS as a diluent and human type O red cells as described. 40 HA units of virus was used in the assay.

HBTE cells = assay: LDH assay of cell viability, HBTE cells; format: cell-based, human; settings: 24 hrs, mean±SEM of 3 or 4 experiments
[8] = system: A/Philippines/2/82/H3N2 (Phil82); format: cell-based, influenza A virus; settings: for IC50: read-out: approximate 50% viral neutralizing concentration
[9] = system: A/California/04/09/H1N1 pandemic strain (Cal09); format: cell-based, influenza A virus; remark: listed apart in the source
MDCK cells = assay: LDH assay of cell viability, MDCK cells; format: cell-based, canine; settings: peptide 12.8 μM, 24 hrs, mean±SEM of 3 or 4 experiments
Method: The LDH assay was performed using LDH cytoxicity detection kit (Clontech, CA, USA) according to the manufacturer’s instructions. In brief, MDCK cells were incubated with Phil82 IAV (with or without LL-37 and related peptides). Cells were also incubated with peptides alone. The incubation time (24 hrs) and assay conditions were exactly same as in fluorescent focus assays. The LDH activity was measured after the 24 hrs incubation of cells with IAV and/or peptides. Controls included uninfected/untreated cells as negative control (NC) and cells treated with lysis solution as positive control (PC). The percent cytotoxicity is obtained from OD values using the formula: [(Sample OD—NC OD) ÷ (PC OD—NC OD)] ×100

Cal09 = format: cell-based, influenza A virus
NA activity of Cal09 = format: biochemical, influenza A virus
NY01 = format: cell-based, influenza A virus
A/PR/8/34/H1N1 (PR-8) = format: cell-based, influenza A virus
[10] = HBTE no IAV, peptide 12.8 μM, LL-23V9 n = 1, * significantly reduced vs control
[11] = HBTE+IAV (Phil82), peptide 12.8 μM, LL-23V9 n = 1, * significantly reduced vs control
[12] = read-out: approximate 50% viral neutralizing concentration

Molecule | effect on replication, in words [1] | effect on infectivity, in words [6] | inhibition of hemagglutination activity [7] | % Viability of MDCK or HBTE Cells (HBTE cells; [10]) | % Viability of MDCK or HBTE Cells (HBTE cells; [11]) | antiviral (neutralizing) activity, in words [8] | effect on infectivity, in words [9] | % Viability of MDCK or HBTE Cells (MDCK cells; MDCK no IAV) | % Viability of MDCK or HBTE Cells (MDCK cells; MDCK+IAV (Phil82)) | other results
HNP-1: the human defensin HNP-1 (human neutrophil peptide), purchased from Bachem [reference compound] | did inhibit Cal09 |  |  |  |  |  |  |  |  | 
CCOC(=O)C1=C[C@@H](OC(CC)CC)[C@H](NC(C)=O)[C@@H](N)C1 [Oseltamivir] |  |  |  |  |  |  |  |  |  | inhibition of NA activity, in words [2]: marked reduction of NA activity
CRAMP [reference compound] | did not significantly inhibit |  |  |  |  |  |  |  |  | effect on replication, in words [3]: inhibited (albeit modestly); effect on replication, in words [4]: inhibited (albeit modestly); effect on replication, in words [5]: did not significantly inhibit
LLGDFFRKVKEKIGKEFKRIVQR [LL-23V9] | modest but statistically significant inhibition | without activity | No inhibition was observed | 103% | 99% | significantly increased activity compared to LL-23 | without activity | 112±6% | 108±7% | 
GIKEFKRIVQRIKDFLRNLV-NH2 [GI-20] | significant inhibition | significant inhibition | No inhibition was observed | 103±3% | 104±3% | approached or equaled that of full length LL-37 | significant inhibition | 103±7% | 107±3% | 
CC[C@H](C)[C@H](NC(=O)[C@H](CCCCN)NC(=O)[C@H](CCC(=O)O)NC(=O)[C@H](CCCCN)NC(=O)[C@H](CO)NC(=O)[C@H](CCCCN)NC(=O)[C@H](CCCNC(=N)N)NC(=O)[C@H](Cc1ccccc1)NC(=O)[C@H](Cc1ccccc1)NC(=O)[C@H](CC(=O)O)NC(=O)CNC(=O)[C@H](CC(C)C)NC(=O)[C@@H](N)CC(C)C)C(=O)NCC(=O)N[C@@H](CCCCN)C(=O)N[C@@H](CCC(=O)O)C(=O)N[C@@H](Cc1ccccc1)C(=O)N[C@@H](CCCCN)C(=O)N[C@@H](CCCNC(=N)N)C(=O)N[C@H](C(=O)N[C@H](C(=O)N[C@@H](CCC(N)=O)C(=O)N[C@@H](CCCNC(=N)N)C(=O)N[C@H](C(=O)N[C@@H](CCCCN)C(=O)N[C@@H](CC(=O)O)C(=O)N[C@@H](Cc1ccccc1)C(=O)N[C@@H](CC(C)C)C(=O)N[C@@H](CCCNC(=N)N)C(=O)N[C@@H](CC(N)=O)C(=O)N[C@@H](CC(C)C)C(=O)N[C@H](C(=O)N1CCC[C@H]1C(=O)N[C@@H](CCCNC(=N)N)C(=O)N[C@H](C(=O)N[C@@H](CCC(=O)O)C(=O)N[C@@H](CO)C(=O)O)[C@@H](C)O)C(C)C)[C@@H](C)CC)C(C)C)[C@@H](C)CC [LL-37, reference compound] | only slight inhibition at intermediate doses of LL-37 and actual enhancement of the replication of this strain at higher doses |  | No inhibition was observed | 57±6* % | 55±6* % | clear dose-related antiviral activity |  | 92±11% | 99±12% | inhibition of NA activity, in words [2]: neither LL-37 nor the related peptides inhibited NA activity; effect on replication, in words [3]: inhibited at all concentrations tested; % Viability of MDCK or HBTE Cells (HBTE cells; HBTE no IAV, peptide 6.4 μM): 95±2%; % Viability of MDCK or HBTE Cells (HBTE cells; HBTE+IAV (Phil82), peptide 3.2 μM): 105±4%; % Viability of MDCK or HBTE Cells (HBTE cells; HBTE+IAV (Phil82), peptide 6.4 μM): 91±4%; IC50 [8]: ~2 µg/mL; viral RNA at 24 hrs after infection, in words (Cal09): trend to increase of Cal09 in the cells in presence of LL-37 but this was again highly variable and not statistically significant; viral uptake by MDCK cells (viral M protein RNA in cell lysate), in words (Cal09): no significant difference in viral uptake; effect on replication, in words [4]: clear dose related inhibition; inhibition of NA activity, in words (NA activity of Cal09): did not inhibit NA activity; effect on replication, in words [5]: inhibited by LL-37 at the lower concentration of 2.2μM but higher concentrations of LL-37 were not inhibitory; concentrations that significantly decreased viral RNA in supernatants and cells (NY01): ≥ 0.4 µM; viral RNA at 24 hrs after infection, in words (NY01): significant reduction in RNA of NY01 in both cells and supernatant; viral uptake by MDCK cells (viral M protein RNA), in words (NY01): significant reduction of uptake
LLGDFFRKSKEKIGKEFKRIVQR [LL-23] | modest but statistically significant inhibition | without activity | No inhibition was observed | 98±1% | 98±3% | slight antiviral activity | without activity | 105±4% | 101±11% | approximate 50% viral neutralizing concentration (A/PR/8/34/H1N1 (PR-8)): >32μg/ml (>11.3 μM); IC50 (A/PR/8/34/H1N1 (PR-8); [12]): > 11.3 µM; approximate 50% viral neutralizing concentration [8]: >32μg/ml (>11.3 μM); IC50 [8]: > 11.3 µM; approximate 50% viral neutralizing concentration [4]: >32μg/ml (>11.3 μM); IC50 [4, 12]: > 11.3 µM
